Measurements published in ChEMBL document CHEMBL1201862, “PubChem BioAssay data set” (2004).
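48-hour exposure; five concentrations; linearly interpolated endpoints. The concentration for 50% growth inhibition is given as GI50.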 The source made the active and inactive calls. Rule as the data show it: active = GI50 up to about 1.1 µM and inactive = higher.

Experiments:
Assay in all cases: growth of human tumour cells (NCI), 48 h
SNB-75 = test system: SNB-75
COLO 205 = test system: COLO 205
U-251 = test system: U-251
UO-31 = test system: UO-31
BT-549 = test system: BT-549
Malme-3M = test system: Malme-3M
MOLT-4 = test system: MOLT-4
OVCAR-3 = test system: OVCAR-3
HCT-15 = test system: HCT-15
HOP-92 = test system: HOP-92
MDA-N = test system: MDA-N
OVCAR-8 = test system: OVCAR-8
UACC-62 = test system: UACC-62
A549 = test system: A549
NCI-H522 = test system: NCI-H522
Hs-578T = test system: Hs-578T
NCI-H460 = test system: NCI-H460
UACC-257 = test system: UACC-257
SK-MEL-5 = test system: SK-MEL-5
NCI-H23 = test system: NCI-H23

SMILES | GI50 (SNB-75) | GI50 (COLO 205) | GI50 (U-251) | GI50 (UO-31) | GI50 (BT-549) | GI50 (Malme-3M) | GI50 (MOLT-4) | GI50 (OVCAR-3) | GI50 (HCT-15) [µM] | GI50 (HOP-92) | GI50 (MDA-N) | GI50 (OVCAR-8) | GI50 (UACC-62) | GI50 (A549) | GI50 (NCI-H522) | GI50 (Hs-578T) | GI50 (NCI-H460) | GI50 (UACC-257) | GI50 (SK-MEL-5) | GI50 (NCI-H23)
N#Cc1c(N)c2c(c(-c3ccccc3)c1-c1ccccc1)C(=O)N(NC(=O)c1ccccc1)C2=O | > 100 µM (inactive) | > 100 µM (inactive) | > 100 µM (inactive) | 41.9 µM (inactive) | > 100 µM (inactive) | > 100 µM (inactive) | 40.6 µM (inactive) | 31 µM (inactive) | > 100 | 60.5 µM (inactive) | 72.6 µM (inactive) | > 100 µM (inactive) | 75.9 µM (inactive) | > 100 µM (inactive) | 81.7 µM (inactive) | 90.6 µM (inactive) | 55.1 µM (inactive) | > 100 µM (inactive) | 68.7 µM (inactive) | 
N#C/C=C\c1ccc(-c2cc(C(F)(F)F)cc(C(F)(F)F)c2)o1 | 18.7 µM (inactive) | > 100 µM (inactive) | 14.4 µM (inactive) | > 100 µM (inactive) | 36.7 µM (inactive) | 64.4 µM (inactive) | 57.4 µM (inactive) | > 100 µM (inactive) |  | 20.7 µM (inactive) | 22 µM (inactive) | 23 µM (inactive) | 23.3 µM (inactive) | 91.6 µM (inactive) | 48 µM (inactive) | 18.4 µM (inactive) | 86.3 µM (inactive) | > 100 µM (inactive) | 14.9 µM (inactive) | 13.3 µM (inactive)
Clc1ccc(-c2nc3cc(Cl)ccc3[nH]2)cc1 | 40.1 µM (inactive) | 19.6 µM (inactive) | 31.5 µM (inactive) | 26.2 µM (inactive) | 32.2 µM (inactive) | 48.2 µM (inactive) | 34.1 µM (inactive) | 28.9 µM (inactive) | 30.3 | 27.7 µM (inactive) | 29.1 µM (inactive) | 37.6 µM (inactive) | 32.7 µM (inactive) | 29.3 µM (inactive) | 19.6 µM (inactive) | 30.8 µM (inactive) | 31.3 µM (inactive) | 43.3 µM (inactive) | 32.7 µM (inactive) | 27.6 µM (inactive)
O=C1/C(=C/c2ccccc2)N=C(c2ccccc2)N1n1c(-c2ccccc2)nc2ccccc2c1=O | > 100 µM (inactive) | > 100 µM (inactive) | 41.8 µM (inactive) | 83.2 µM (inactive) | 31.6 µM (inactive) | > 100 µM (inactive) | 30.6 µM (inactive) | 57.9 µM (inactive) | 72.4 | 97.5 µM (inactive) | 54.8 µM (inactive) | > 100 µM (inactive) | 31 µM (inactive) | 47.6 µM (inactive) | 46.6 µM (inactive) | 35.2 µM (inactive) | 58.9 µM (inactive) | > 100 µM (inactive) | 38 µM (inactive) | 56.1 µM (inactive)
CCOC(=O)c1nc2ccccc2nc1NCc1ccc(OC)c(OC)c1 | > 100 µM (inactive) | > 100 µM (inactive) | > 100 µM (inactive) | > 100 µM (inactive) | > 100 µM (inactive) | > 100 µM (inactive) | > 100 µM (inactive) | > 100 µM (inactive) | > 100 | > 100 µM (inactive) | > 100 µM (inactive) | > 100 µM (inactive) | > 100 µM (inactive) | > 100 µM (inactive) | > 100 µM (inactive) | 45.9 µM (inactive) | > 100 µM (inactive) | > 100 µM (inactive) | > 100 µM (inactive) | > 100 µM (inactive)
O=c1[nH]/c(=C/c2ccc(OCc3ccccc3)cn2)c(=O)[nH]/c1=C/c1ccc(O)cc1 | 0.762 µM (active) | 1.45 µM (inactive) | 0.719 µM (active) | 0.622 µM (active) | 2.49 µM (inactive) | 2.34 µM (inactive) | 0.301 µM (active) | 1.27 µM (inactive) | 0.501 | 11.6 µM (inactive) | 0.129 µM (active) | 0.877 µM (active) | 1.58 µM (inactive) | 3.05 µM (inactive) | 0.276 µM (active) | 1.67 µM (inactive) | 1.41 µM (inactive) | 2.56 µM (inactive) | 2.07 µM (inactive) | 1.16 µM (inactive)
CCO[C@@]12CCC3CC4CC[C@@](OCC)(O1)C4C32 (stereo partly drawn) | > 100 µM (inactive) | > 100 µM (inactive) | > 100 µM (inactive) | > 100 µM (inactive) | > 100 µM (inactive) | > 100 µM (inactive) | > 100 µM (inactive) | > 100 µM (inactive) | > 100 | > 100 µM (inactive) | > 100 µM (inactive) | > 100 µM (inactive) | > 100 µM (inactive) | > 100 µM (inactive) | > 100 µM (inactive) | > 100 µM (inactive) | > 100 µM (inactive) | > 100 µM (inactive) | > 100 µM (inactive) | > 100 µM (inactive)
